# Target: STAT6 (Homo sapiens (Human), UniProt P42226)
# Assay: STAT6 degrader assay (HiBiT, HeLa LgBiT clone 4.14)
# Assay type: cell-based
# Conditions: HeLa LgBiT clone 4.14, 4-24 h; geometric mean; given for compounds with >80% Emax; read-out: STAT6 degradation DC50
# Experimental: This was a HiBit based assay. A HeLa cell line stably transfected with a small protein, LgBit (Large Bit) was obtained from Promega. These cells express endogenous STAT6. A small 11 amino acid gene sequence (HiBiT) was inserted in the STAT6 gene using CRISPR technology. Once STAT6 protein is expressed in the cells, the HiBiT sequence will bind the LgBit in the cells resulting in a functional NanoBiT protein, giving a luminescent tag to STAT6, see FIG. 2.
# Single cell clones were prepared and the clone 4.14 was selected for the assay based on that clone showing high luminescence, high STAT6 phosphorylation upon stimulation with IL-4, and inhibition of luminescence when cells were treated with STAT6 siRNA.
# HeLa LgBiT clone 4.14 cells were suspended in DMEM with 10% FCS, 1% Pen/Strep, Na-pyrovate and Hygromycin B, at a concentration of 1.25*105 cells pr mL. 5000 cells were added pr well of a 384 well plate and 20 nL of compound was added by Echo® liquid handler. NN6394A (terfenadine, a toxic compound) was added to control wells at 50 μM concentration to establish the assay window. In these wells the cells are dead which equals 100% degradation of STAT6.
# After 4-24 h of incubation at 37° C. under 5% CO2/95% air, 5 μL substrate (Nano-GLO®) was added to the wells and the plates were centrifuged and incubated for 0.5 h.
# The luminescence in the wells as a measure of non-degraded STAT6 was measured in a plate reader (BMG Pherastar FSX). The measured DC50 (in nM) was determined.
# The dose-response curves Examples 3p1, 3e50, 3e17, and 3e51 are shown below (where percent degradation is plotted vs. test compound concentration in M on a log-scale).
# Chain of STAT6 (P42226 whole entry): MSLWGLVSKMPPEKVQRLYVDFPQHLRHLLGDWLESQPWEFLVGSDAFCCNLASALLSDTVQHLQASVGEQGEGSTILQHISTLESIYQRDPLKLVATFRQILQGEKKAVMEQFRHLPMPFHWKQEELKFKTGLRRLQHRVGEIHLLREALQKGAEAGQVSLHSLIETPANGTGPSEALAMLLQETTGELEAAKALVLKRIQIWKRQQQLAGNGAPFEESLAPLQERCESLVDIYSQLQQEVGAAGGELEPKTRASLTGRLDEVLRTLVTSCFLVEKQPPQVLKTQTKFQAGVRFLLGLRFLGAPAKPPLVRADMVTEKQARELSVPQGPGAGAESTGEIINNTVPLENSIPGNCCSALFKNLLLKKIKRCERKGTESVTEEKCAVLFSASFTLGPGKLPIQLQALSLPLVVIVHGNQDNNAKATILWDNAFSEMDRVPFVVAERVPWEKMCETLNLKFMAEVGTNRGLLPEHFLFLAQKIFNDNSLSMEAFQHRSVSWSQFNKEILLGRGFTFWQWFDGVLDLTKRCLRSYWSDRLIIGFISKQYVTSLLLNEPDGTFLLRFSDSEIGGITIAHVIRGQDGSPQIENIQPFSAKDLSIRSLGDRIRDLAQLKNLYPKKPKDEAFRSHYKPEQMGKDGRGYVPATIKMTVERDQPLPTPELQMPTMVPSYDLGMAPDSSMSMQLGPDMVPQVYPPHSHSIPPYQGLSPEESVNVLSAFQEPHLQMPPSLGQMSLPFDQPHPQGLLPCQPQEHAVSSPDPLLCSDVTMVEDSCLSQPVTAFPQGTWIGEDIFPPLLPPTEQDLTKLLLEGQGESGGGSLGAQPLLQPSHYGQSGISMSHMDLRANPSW
row,Structure (SMILES),DC50 [nM]
1,"CNc1ccc(-c2ccnc3c2cc([C@H](C)N2CCC(c4ccc(C(=O)N5CCC(CN6CCN(Cc7cc8c(cc7F)n([C@@H]7CCC(=O)NC7=O)c(=O)n8C)C[C@@H]6C)CC5)cc4)CC2)n3C)cn1 [Example 3h22, (R)-3-(6-fluoro-3-methyl-5-(((S)-3-methyl-4-((1-(4-(1-((S)-1-(1-methyl-4-(6-(methylamino)pyridin-3-yl)-1H-pyrrolo[2,3-b]pyridin-2-yl)ethyl)piperidin-4-yl)benzoyl)piperidin-4-yl)methyl)piperazin-1-yl)methyl)-2-oxo-2,3-dihydro-1H-benzo[d]imidazol-1-yl)piperidine-2,6-dione]",0.9
2,"CNc1ccc(-c2ccnc3c2cc([C@H](C)N2CCC(c4ccc(C(=O)N5CCC(CN6CCN(Cc7cc8c(cc7F)n([C@H]7CCC(=O)NC7=O)c(=O)n8C)C[C@@H]6C)CC5)cc4)CC2)n3C)cn1 [Example 3h23, (S)-3-(6-fluoro-3-methyl-5-(((S)-3-methyl-4-((1-(4-(1-((S)-1-(1-methyl-4-(6-(methylamino)pyridin-3-yl)-1H-pyrrolo[2,3-b]pyridin-2-yl)ethyl)piperidin-4-yl)benzoyl)piperidin-4-yl)methyl)piperazin-1-yl)methyl)-2-oxo-2,3-dihydro-1H-benzo[d]imidazol-1-yl)piperidine-2,6-dione]",1.5
3,"Cc1cc(C(=O)N(C)c2ccc(C3CCN(Cc4ccc5c(c4)n(C)c(=O)n5C4CCC(=O)NC4=O)CC3)cc2)cc(F)c1C1=CCN(Cc2cc3c(-c4ccc(N)nc4)ccnc3n2C)CC1 (stereo not drawn) [Example 3h39, 4-(1-((4-(6-aminopyridin-3-yl)-1-methyl-1H-pyrrolo[2,3-b]pyridin-2-yl)methyl)-1,2,3,6-tetrahydropyridin-4-yl)-N-(4-(1-((1-(2,6-dioxopiperidin-3-yl)-3-methyl-2-oxo-2,3-dihydro-1H-benzo[d]imidazol-5-yl)methyl)piperidin-4-yl)phenyl)-3-fluoro-N,5-dimethylbenzamide]",0.1
4,"Cn1c(CN2CCC(c3ccc(C(=O)N4CCC(CCn5cc(-c6cccc7c6n(C)c(=O)n7C6CCC(=O)NC6=O)cn5)CC4)cc3)CC2)cc2c(-c3ccc4[nH]ncc4c3)ccnc21 (stereo not drawn) [Example 3l2, 3-(4-(1-(2-(1-(4-(1-((4-(1H-indazol-5-yl)-1-methyl-1H-pyrrolo[2,3-b]pyridin-2-yl)methyl)-piperidin-4-yl)benzoyl)piperidin-4-yl)ethyl)-1H-pyrazol-4-yl)-3-methyl-2-oxo-2,3-dihydro-1H-benzo[d]-imidazol-1-yl)piperidine-2,6-dione]",3
5,"Cn1c(CN2CCC(c3ccc(C(=O)N4CCC(CCn5cc(-c6ccc7c(c6)n(C)c(=O)n7C6CCC(=O)NC6=O)cn5)CC4)cc3)CC2)cc2c(-c3ccc4[nH]ncc4c3)ccnc21 (stereo not drawn) [Example 3l4, 3-(5-(1-(2-(1-(4-(1-((4-(1H-indazol-5-yl)-1-methyl-1H-pyrrolo[2,3-b]pyridin-2-yl)methyl)-piperidin-4-yl)benzoyl)piperidin-4-yl)ethyl)-1H-pyrazol-4-yl)-3-methyl-2-oxo-2,3-dihydro-1H-benzo[d]imidazol-1-yl)piperidine-2,6-dione]",2.6
6,"Cn1c(CN2CCC(c3ccc(C(=O)N4CCC(CN5CCN(c6ccc7c(c6)n(C)c(=O)n7C6CCC(=O)NC6=O)CC5)CC4)cc3)CC2)cc2c(-c3ccc4[nH]ncc4c3)ccnc21 (stereo not drawn) [Example 3m2, 3-(5-(4-((1-(4-(1-((4-(1H-indazol-5-yl)-1-methyl-1H-pyrrolo[2,3-b]pyridin-2-yl)methyl)-piperidin-4-yl)benzoyl)piperidin-4-yl)methyl)piperazin-1-yl)-3-methyl-2-oxo-2,3-dihydro-1H-benzo[d]imidazol-1-yl)piperidine-2,6-dione]",1.8

# Same assay, conditions: HeLa LgBiT clone 4.14, 4-24 h; read-out: STAT6 degradation Emax (%)
row,Structure (SMILES),Emax [%]
1,"C[C@H]1CN(Cc2ccc3c(c2)n(C2CC2)c(=O)n3C2CCC(=O)N(C)C2=O)CCN1CC1CCN(C(=O)c2ccc(C3CCN([C@@H](C)c4cc5c(-c6ccc(N)nc6)ccnc5n4C)CC3)cc2)CC1 (stereo partly drawn) [Example 3h28, 3-(5-(((S)-4-((1-(4-(1-((S)-1-(4-(6-aminopyridin-3-yl)-1-methyl-1H-pyrrolo[2,3-b]pyridin-2-yl)ethyl)piperidin-4-yl)benzoyl)piperidin-4-yl)methyl)-3-methylpiperazin-1-yl)methyl)-3-cyclopropyl-2-oxo-2,3-dihydro-1H-benzo[d]imidazol-1-yl)-1-methylpiperidine-2,6-dione]",20 to 30
2,"CNc1ccc(-c2ccnc3c2cc(CN2CCC(c4c(F)cc(C(=O)N5CCC(CN6CCN(c7cc8c(cc7F)n(C7CCC(=O)NC7=O)c(=O)n8C)CC6)CC5)cc4F)CC2)n3C)cn1 (stereo not drawn) [Example 3h49, 3-(5-(4-((1-(3,5-difluoro-4-(1-((1-methyl-4-(6-(methylamino)pyridin-3-yl)-1H-pyrrolo[2,3-b]pyridin-2-yl)methyl)piperidin-4-yl)benzoyl)piperidin-4-yl)methyl)piperazin-1-yl)-6-fluoro-3-methyl-2-oxo-2,3-dihydro-1H-benzo[d]imidazol-1-yl)piperidine-2,6-dione]",< 20
3,"Cn1c(CN2CCC(c3ccc(C(=O)N4CCC(CN5CCN(Cc6cccc7c6n(C)c(=O)n7C6CCC(=O)NC6=O)CC5)CC4)cc3)CC2)cc2c(-c3ccc4[nH]ncc4c3)ccnc21 (stereo not drawn) [Example 3i1, 3-(4-((4-((1-(4-(1-((4-(1H-indazol-5-yl)-1-methyl-1H-pyrrolo[2,3-b]pyridin-2-yl)methyl)-piperidin-4-yl)benzoyl)piperidin-4-yl)methyl)piperazin-1-yl)methyl)-3-methyl-2-oxo-2,3-dihydro-1H-benzo[d]imidazol-1-yl)piperidine-2,6-dione]",50 to 60
4,"Cn1c(CN2CCC(c3ccc(C(=O)N4CCC(N5CCN(Cc6ccc7c(c6)n(C)c(=O)n7C6CCC(=O)NC6=O)CC5)CC4)cc3)CC2)cc2c(-c3ccc4[nH]ncc4c3)ccnc21 (stereo not drawn) [Example 3j1, 3-(5-((4-(1-(4-(1-((4-(1H-indazol-5-yl)-1-methyl-1H-pyrrolo[2,3-b]pyridin-2-yl)methyl)piperidin-4-yl)benzoyl)piperidin-4-yl)piperazin-1-yl)methyl)-3-methyl-2-oxo-2,3-dihydro-1H-benzo[d]imidazol-1-yl)piperidine-2,6-dione]",20 to 30
5,"Cn1c(CN2CCC(c3ccc(C(=O)N4CCC(N5CCN(Cc6cccc7c6n(C)c(=O)n7C6CCC(=O)NC6=O)CC5)CC4)cc3)CC2)cc2c(-c3ccc4[nH]ncc4c3)ccnc21 (stereo not drawn) [Example 3j2, 3-(4-((4-(1-(4-(1-((4-(1H-indazol-5-yl)-1-methyl-1H-pyrrolo[2,3-b]pyridin-2-yl)methyl)piperidin-4-yl)benzoyl)piperidin-4-yl)piperazin-1-yl)methyl)-3-methyl-2-oxo-2,3-dihydro-1H-benzo[d]imidazol-1-yl)piperidine-2,6-dione]",< 20
6,"Cn1c(CN2CCC(c3ccc(C(=O)N4CCN(CC5CCN(Cc6cccc7c6n(C)c(=O)n7C6CCC(=O)NC6=O)CC5)CC4)cc3)CC2)cc2c(-c3ccc4[nH]ncc4c3)ccnc21 (stereo not drawn) [Example 3k1, 3-(4-((4-((4-(4-(1-((4-(1H-indazol-5-yl)-1-methyl-1H-pyrrolo[2,3-b]pyridin-2-yl)methyl)-piperidin-4-yl)benzoyl)piperazin-1-yl)methyl)piperidin-1-yl)methyl)-3-methyl-2-oxo-2,3-dihydro-1H-benzo[d]imidazol-1-yl)piperidine-2,6-dione]",20 to 30
7,"Cn1c(CN2CCC(c3ccc(C(=O)N4CCC(Cn5cc(-c6cccc7c6n(C)c(=O)n7C6CCC(=O)NC6=O)cn5)CC4)cc3)CC2)cc2c(-c3ccc4[nH]ncc4c3)ccnc21 (stereo not drawn) [Example 3l1, 3-(4-(1-((1-(4-(1-((4-(1H-indazol-5-yl)-1-methyl-1H-pyrrolo[2,3-b]pyridin-2-yl)methyl)piperidin-4-yl)benzoyl)piperidin-4-yl)methyl)-1H-pyrazol-4-yl)-3-methyl-2-oxo-2,3-dihydro-1H-benzo[d]imidazol-1-yl)piperidine-2,6-dione]",20 to 30
8,"Cn1c(CN2CCC(c3ccc(C(=O)N4CCC(Cn5cc(-c6ccc7c(c6)n(C)c(=O)n7C6CCC(=O)NC6=O)cn5)CC4)cc3)CC2)cc2c(-c3ccc4[nH]ncc4c3)ccnc21 (stereo not drawn) [Example 3l3, 3-(5-(1-((1-(4-(1-((4-(1H-indazol-5-yl)-1-methyl-1H-pyrrolo[2,3-b]pyridin-2-yl)methyl)piperidin-4-yl)benzoyl)piperidin-4-yl)methyl)-1H-pyrazol-4-yl)-3-methyl-2-oxo-2,3-dihydro-1H-benzo[d]imidazol-1-yl)piperidine-2,6-dione]",30 to 40
9,"Cn1c(CN2CCC(c3ccc(C(=O)N4CCC(CN5CCN(c6ccc7c(c6)n(C)c(=O)n7C6CCC(=O)NC6=O)CC5)CC4)cc3)CC2)cc2c(-c3ccc(N)nc3)ccnc21 (stereo not drawn) [Example 3m1, 3-(5-(4-((1-(4-(1-((4-(6-aminopyridin-3-yl)-1-methyl-1H-pyrrolo[2,3-b]pyridin-2-yl)methyl)-piperidin-4-yl)benzoyl)piperidin-4-yl)methyl)piperazin-1-yl)-3-methyl-2-oxo-2,3-dihydro-1H-benzo[d]imidazol-1-yl)piperidine-2,6-dione]",40 to 50
